Literature values as cited in US20090304692A1, “TRIAZINE COMPOUNDS AS PI3 KINASE AND MTOR INHIBITORS” (Wyeth, priority 2008, published 2009).
pIC50: −log10 of the molar value. Where two headings read alike, the source gives them in different places.

Experiments:
[1] = system: human tumor xenograft models; conditions: cited from earlier work
[2] = system: acute lymphoblastic leukemia xenograft; conditions: NOS/SCID xenograft mouse model of acute lymphoblastic leukemia; cited from earlier work
mTOR enzymes = mTOR enzymes (Homo sapiens, UniProt P42345); conditions: read-out: mTOR enzymes IC50; cited from earlier work

Structure (SMILES): Oc1cccc(-c2nc(N3CCOCC3)c3oc4ncccc4c3n2)c1 [PI103, 3-(4-(4-morpholinyl)pyrido[3′,2′:4,5]furo[3,2-d]pyrimidin-2-yl)phenol]
- activity against human tumor models ([1]; I.P. dosing in mice, U87MG, PC3, MDA-MB-468, MDA-MB-435, HCT 116, SKOV3, IGROV-1 xenografts): demonstrated activity

Structure (SMILES): CO[C@H]1C[C@@H]2CC[C@@H](C)[C@@](O)(O2)C(=O)C(=O)N2CCCC[C@H]2C(=O)O[C@H]([C@H](C)C[C@@H]2CC[C@@H](OC(=O)C(C)(CO)CO)[C@H](OC)C2)CC(=O)[C@H](C)/C=C(\C)[C@@H](O)[C@@H](OC)C(=O)[C@H](C)C[C@H](C)/C=C/C=C/C=C/1C [Torisel]
- activity in xenograft mouse model [2]: active

Structure (SMILES): Cn1c(=O)n(-c2ccc(C(C)(C)C#N)cc2)c2c3cc(-c4cnc5ccccc5c4)ccc3ncc21 [NVP-BEZ-235, 2-methyl-2-(4-(3-methyl-2-oxo-8-(quinolin-3-yl)-2,3-dihydro-1H-imidazo[4,5-c]quinolin-1-yl)phenyl)propanenitrile]
- activity against human tumor models ([1]; prostrate (PC-3) and glioblastoma (U-87) xenografts): demonstrated activity

Structure (SMILES): FC(F)c1nc2ccccc2n1-c1nc(N2CCOCC2)nc(N2CCOCC2)n1 [ZSTK474, 2-(2-difluoromethylbenzoimidazol-1-yl)-4,6-dimorpholino-1,3,5-triazine]
- pIC50 (mTOR enzymes): < 5.00
- growth of human xenograft tumors ([1]; chronic oral administration, 400 mg/kg, mouse, A549, PC-3, WiDr): completely inhibited growth
